“And” between values parts separate entries of the source, which are not always exact repeats. Identical values can stand only once.
Legend:
[1] = molecular target: 5-hydroxytryptamine receptor 2B (Homo sapiens, UniProt P41595)
[2] = molecular target: Sodium-dependent dopamine transporter (Rattus norvegicus, UniProt P23977)
[3] = molecular target: Sodium-dependent serotonin transporter (Rattus norvegicus, UniProt P31652)
[4] = molecular target: Norepinephrine transporter (Rattus norvegicus, UniProt Q9JIA2)
[5] = molecular target: Sodium-dependent noradrenaline transporter (Homo sapiens, UniProt P23975)
[6] = molecular target: 5-hydroxytryptamine receptor 7 (Homo sapiens, UniProt P34969)
[7] = molecular target: 5-hydroxytryptamine receptor 1D (Homo sapiens, UniProt P28221)
[8] = molecular target: Muscarinic acetylcholine receptor M1 (Homo sapiens, UniProt P11229)
[9] = molecular target: Metabotropic glutamate receptor 8 (Rattus norvegicus, UniProt P70579)
[10] = molecular target: Muscarinic acetylcholine receptor M4 (Homo sapiens, UniProt P08173)
[11] = molecular target: D(1A) dopamine receptor (Homo sapiens, UniProt P21728)
[12] = molecular target: Sodium-dependent dopamine transporter (Homo sapiens, UniProt Q01959)
[13] = molecular target: Gamma-aminobutyric acid (GABA) B receptor 1 (Rattus norvegicus, UniProt Q6MFX8)
[14] = molecular target: Metabotropic glutamate receptor 4 (Rattus norvegicus, UniProt P31423)
[15] = molecular target: Alpha-2C adrenergic receptor (Homo sapiens, UniProt P18825)
[16] = molecular target: Prostaglandin E2 receptor EP3 subtype (Homo sapiens, UniProt P43115)
[17] = molecular target: Histamine H1 receptor (Homo sapiens, UniProt P35367)
[18] = molecular target: Muscarinic acetylcholine receptor M2 (Homo sapiens, UniProt P08172)
[19] = molecular target: Glutamate receptor ionotropic, NMDA 1 (Rattus norvegicus, UniProt P35439)
[20] = molecular target: 5-hydroxytryptamine receptor 2C (Rattus norvegicus, UniProt P08909)
[21] = molecular target: Voltage-dependent L-type calcium channel subunit alpha-1C (Rattus norvegicus, UniProt P22002)
[22] = molecular target: Alpha-1A adrenergic receptor (Homo sapiens, UniProt P35348)
Sequence of Alpha-1A adrenergic receptor (P35348 whole entry): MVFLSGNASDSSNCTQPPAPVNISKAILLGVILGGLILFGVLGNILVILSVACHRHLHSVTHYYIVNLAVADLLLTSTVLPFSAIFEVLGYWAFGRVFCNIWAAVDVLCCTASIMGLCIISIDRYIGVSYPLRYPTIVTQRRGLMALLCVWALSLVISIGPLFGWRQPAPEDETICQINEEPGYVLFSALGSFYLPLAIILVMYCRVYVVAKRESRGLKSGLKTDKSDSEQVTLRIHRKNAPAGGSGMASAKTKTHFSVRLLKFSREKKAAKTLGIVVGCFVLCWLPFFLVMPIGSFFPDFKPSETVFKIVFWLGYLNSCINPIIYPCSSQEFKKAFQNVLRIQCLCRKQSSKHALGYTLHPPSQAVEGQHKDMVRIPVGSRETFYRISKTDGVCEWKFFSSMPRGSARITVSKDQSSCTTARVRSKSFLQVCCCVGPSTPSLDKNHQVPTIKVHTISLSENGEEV

[23] = molecular target: Muscarinic acetylcholine receptor M5 (Homo sapiens, UniProt P08912)
[24] = molecular target: Alpha-2A adrenergic receptor (Homo sapiens, UniProt P08913)
[25] = molecular target: Metabotropic glutamate receptor 1 (Rattus norvegicus, UniProt P23385)
[26] = molecular target: Cannabinoid receptor 1 (Rattus norvegicus, UniProt P20272)
Sequence of Cannabinoid receptor 1 (P20272 whole entry): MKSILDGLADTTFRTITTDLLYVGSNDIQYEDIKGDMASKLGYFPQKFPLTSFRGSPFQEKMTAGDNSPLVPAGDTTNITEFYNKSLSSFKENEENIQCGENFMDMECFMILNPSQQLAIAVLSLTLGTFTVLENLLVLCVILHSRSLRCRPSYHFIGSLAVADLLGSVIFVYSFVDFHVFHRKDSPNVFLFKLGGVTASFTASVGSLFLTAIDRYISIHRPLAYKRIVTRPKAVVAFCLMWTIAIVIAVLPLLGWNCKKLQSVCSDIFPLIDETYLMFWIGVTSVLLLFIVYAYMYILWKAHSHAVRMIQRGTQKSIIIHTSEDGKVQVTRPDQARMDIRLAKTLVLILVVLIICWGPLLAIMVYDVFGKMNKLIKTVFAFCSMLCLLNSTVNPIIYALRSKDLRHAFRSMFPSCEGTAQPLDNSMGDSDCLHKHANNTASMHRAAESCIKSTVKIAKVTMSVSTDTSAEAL

[27] = molecular target: D(2) dopamine receptor (Homo sapiens, UniProt P14416)
[28] = molecular target: 5-hydroxytryptamine receptor 1A (Homo sapiens, UniProt P08908)
[29] = molecular target: Beta-2 adrenergic receptor (Rattus norvegicus, UniProt P10608)
[30] = molecular target: D(4) dopamine receptor (Rattus norvegicus, UniProt P30729)
[31] = molecular target: 5-hydroxytryptamine receptor 1B (Homo sapiens, UniProt P28222)
Sequence of 5-hydroxytryptamine receptor 1B (P28222 whole entry): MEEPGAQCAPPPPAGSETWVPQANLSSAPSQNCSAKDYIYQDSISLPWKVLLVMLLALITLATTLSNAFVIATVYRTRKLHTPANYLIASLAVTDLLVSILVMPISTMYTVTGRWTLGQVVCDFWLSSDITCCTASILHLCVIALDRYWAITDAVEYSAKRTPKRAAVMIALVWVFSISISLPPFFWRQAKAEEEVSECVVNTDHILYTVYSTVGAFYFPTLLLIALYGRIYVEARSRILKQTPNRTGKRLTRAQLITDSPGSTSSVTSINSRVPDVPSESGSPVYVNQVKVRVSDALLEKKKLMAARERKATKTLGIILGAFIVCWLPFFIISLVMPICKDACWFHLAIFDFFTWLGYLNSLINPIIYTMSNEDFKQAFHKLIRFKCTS

[32] = molecular target: Neuronal acetylcholine receptor subunit alpha-3 (Homo sapiens, UniProt P32297)
[33] = molecular target: Metabotropic glutamate receptor 2 (Homo sapiens, UniProt Q14416)
[34] = molecular target: Beta-1 adrenergic receptor (Rattus norvegicus, UniProt P18090)
Sequence of Beta-1 adrenergic receptor (P18090 whole entry): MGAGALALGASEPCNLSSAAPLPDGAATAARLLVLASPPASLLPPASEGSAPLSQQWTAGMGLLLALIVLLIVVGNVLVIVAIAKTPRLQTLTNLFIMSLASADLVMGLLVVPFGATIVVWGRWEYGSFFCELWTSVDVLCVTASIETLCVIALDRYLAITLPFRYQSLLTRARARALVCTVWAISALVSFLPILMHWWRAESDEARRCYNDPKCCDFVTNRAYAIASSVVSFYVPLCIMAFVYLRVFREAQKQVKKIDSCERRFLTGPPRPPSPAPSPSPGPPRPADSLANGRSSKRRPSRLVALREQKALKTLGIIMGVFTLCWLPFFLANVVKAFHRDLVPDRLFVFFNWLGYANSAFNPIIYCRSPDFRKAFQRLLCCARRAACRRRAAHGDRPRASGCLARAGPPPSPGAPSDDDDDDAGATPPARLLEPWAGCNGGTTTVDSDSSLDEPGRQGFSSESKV

[35] = molecular target: D(3) dopamine receptor (Homo sapiens, UniProt P35462)
[36] = molecular target: Prostaglandin E2 receptor EP4 subtype (Homo sapiens, UniProt P35408)
Sequence of Prostaglandin E2 receptor EP4 subtype (P35408 whole entry): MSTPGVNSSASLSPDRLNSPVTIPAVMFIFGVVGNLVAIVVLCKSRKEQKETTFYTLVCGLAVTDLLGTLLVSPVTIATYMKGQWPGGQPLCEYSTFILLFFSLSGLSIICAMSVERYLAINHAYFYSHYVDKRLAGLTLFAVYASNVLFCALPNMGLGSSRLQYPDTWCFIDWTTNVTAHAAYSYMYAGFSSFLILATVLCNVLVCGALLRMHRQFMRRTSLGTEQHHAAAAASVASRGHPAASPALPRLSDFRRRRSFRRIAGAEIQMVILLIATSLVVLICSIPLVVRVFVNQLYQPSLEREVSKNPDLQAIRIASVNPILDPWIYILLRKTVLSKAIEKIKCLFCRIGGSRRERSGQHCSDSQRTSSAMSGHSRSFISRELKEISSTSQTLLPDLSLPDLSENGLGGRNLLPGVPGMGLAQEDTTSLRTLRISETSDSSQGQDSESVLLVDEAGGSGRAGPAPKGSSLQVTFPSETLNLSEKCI

[37] = molecular target: 5-hydroxytryptamine receptor 6 (Homo sapiens, UniProt P50406)
[38] = molecular target: 5-hydroxytryptamine receptor 5A (Homo sapiens, UniProt P47898)
[39] = molecular target: Acetylcholine receptor subunit alpha (Homo sapiens, UniProt P02708)
Sequence of Acetylcholine receptor subunit alpha (P02708 as listed by the source): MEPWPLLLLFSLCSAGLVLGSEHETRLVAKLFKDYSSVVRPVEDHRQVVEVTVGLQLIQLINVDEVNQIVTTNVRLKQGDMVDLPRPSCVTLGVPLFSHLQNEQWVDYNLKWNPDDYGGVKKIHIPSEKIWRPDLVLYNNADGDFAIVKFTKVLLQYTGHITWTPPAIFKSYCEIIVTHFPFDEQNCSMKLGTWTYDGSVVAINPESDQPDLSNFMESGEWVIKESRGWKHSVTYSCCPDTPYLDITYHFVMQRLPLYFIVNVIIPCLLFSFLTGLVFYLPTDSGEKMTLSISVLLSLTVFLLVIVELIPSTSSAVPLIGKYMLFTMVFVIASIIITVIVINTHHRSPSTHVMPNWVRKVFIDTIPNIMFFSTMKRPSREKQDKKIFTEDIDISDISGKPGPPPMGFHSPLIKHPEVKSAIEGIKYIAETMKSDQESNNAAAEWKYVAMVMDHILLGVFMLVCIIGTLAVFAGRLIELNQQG

[40] = molecular target: D(1B) dopamine receptor (Homo sapiens, UniProt P21918)
[41] = molecular target: Gamma-aminobutyric acid receptor subunit alpha-1 (Rattus norvegicus, UniProt P62813)
Sequence of Gamma-aminobutyric acid receptor subunit alpha-1 (P62813 whole entry): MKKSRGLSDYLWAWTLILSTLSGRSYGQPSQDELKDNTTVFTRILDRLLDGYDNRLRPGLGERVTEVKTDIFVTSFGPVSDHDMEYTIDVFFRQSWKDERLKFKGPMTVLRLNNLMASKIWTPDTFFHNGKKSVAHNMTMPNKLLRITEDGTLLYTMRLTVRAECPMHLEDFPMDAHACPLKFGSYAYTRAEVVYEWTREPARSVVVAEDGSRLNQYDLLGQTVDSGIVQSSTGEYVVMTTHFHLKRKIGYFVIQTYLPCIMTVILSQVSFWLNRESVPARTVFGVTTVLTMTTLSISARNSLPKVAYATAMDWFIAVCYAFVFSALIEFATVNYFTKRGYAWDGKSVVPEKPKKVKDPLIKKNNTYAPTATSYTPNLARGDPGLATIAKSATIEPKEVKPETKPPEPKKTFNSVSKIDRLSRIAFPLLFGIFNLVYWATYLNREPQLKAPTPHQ

Sequence of Sodium-dependent serotonin transporter (P31652 whole entry): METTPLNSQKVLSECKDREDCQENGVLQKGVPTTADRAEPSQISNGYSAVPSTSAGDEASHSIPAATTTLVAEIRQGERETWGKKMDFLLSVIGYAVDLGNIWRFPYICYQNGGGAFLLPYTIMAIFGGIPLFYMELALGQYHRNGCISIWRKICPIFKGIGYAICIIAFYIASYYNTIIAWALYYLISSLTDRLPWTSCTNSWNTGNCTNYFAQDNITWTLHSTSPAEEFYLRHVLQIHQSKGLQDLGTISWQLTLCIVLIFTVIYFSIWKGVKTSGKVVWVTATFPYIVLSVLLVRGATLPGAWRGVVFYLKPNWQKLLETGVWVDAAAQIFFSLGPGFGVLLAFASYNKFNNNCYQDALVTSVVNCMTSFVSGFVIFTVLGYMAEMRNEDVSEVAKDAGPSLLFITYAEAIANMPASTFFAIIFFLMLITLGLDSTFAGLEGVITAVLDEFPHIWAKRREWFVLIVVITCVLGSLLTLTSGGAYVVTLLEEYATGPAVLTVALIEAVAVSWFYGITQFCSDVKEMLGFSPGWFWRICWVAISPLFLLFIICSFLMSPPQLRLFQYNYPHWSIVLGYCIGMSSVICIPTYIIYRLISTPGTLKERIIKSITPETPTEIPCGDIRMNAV
Sequence of 5-hydroxytryptamine receptor 2B (P41595 whole entry): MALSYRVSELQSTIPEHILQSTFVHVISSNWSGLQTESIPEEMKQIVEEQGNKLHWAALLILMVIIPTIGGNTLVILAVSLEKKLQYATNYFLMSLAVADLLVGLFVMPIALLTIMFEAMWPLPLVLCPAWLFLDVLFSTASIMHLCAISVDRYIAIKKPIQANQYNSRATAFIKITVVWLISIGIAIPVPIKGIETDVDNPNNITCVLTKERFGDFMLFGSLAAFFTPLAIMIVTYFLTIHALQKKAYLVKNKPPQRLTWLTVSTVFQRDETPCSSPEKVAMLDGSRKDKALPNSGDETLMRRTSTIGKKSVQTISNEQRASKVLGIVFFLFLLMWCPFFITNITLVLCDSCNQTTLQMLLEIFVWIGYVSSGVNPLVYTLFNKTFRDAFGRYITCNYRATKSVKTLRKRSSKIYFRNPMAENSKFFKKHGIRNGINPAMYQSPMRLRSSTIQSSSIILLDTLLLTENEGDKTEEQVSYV
Sequence of Sodium-dependent dopamine transporter (Rattus norvegicus, UniProt P23977) (P23977 whole entry): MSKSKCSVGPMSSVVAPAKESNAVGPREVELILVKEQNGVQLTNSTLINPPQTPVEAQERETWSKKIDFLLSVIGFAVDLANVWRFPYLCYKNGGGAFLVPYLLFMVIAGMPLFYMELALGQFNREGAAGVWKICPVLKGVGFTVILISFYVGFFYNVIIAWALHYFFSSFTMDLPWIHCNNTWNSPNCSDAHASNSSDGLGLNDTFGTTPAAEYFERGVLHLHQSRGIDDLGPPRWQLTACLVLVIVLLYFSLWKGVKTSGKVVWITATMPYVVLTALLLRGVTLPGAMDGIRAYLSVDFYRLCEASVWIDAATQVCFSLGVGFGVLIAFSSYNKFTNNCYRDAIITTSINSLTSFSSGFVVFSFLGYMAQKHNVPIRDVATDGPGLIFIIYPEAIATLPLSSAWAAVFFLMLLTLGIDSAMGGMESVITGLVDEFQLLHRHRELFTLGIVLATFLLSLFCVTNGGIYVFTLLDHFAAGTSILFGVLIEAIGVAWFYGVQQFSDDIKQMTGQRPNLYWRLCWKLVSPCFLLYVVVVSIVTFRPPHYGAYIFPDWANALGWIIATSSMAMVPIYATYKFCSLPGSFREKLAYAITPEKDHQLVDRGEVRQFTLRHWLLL

## CCC(CO)NC(=O)C1C=C2c3cccc4[nH]cc(c34)CC2N(C)C1 (stereo unspecified) [NSC_8226]
[1]
  Ki: 0.8 nM

## CC(N)Cc1cccc(C(F)(F)F)c1 (stereo unspecified) [NSC_15897]
[2]
  Ki: 1900 nM
[1]
  Ki: 15 nM and 60 nM
[3]
  Ki: 104 nM
[4]
  Ki: 170 nM

## CN1CC(C(=O)NC2(C)OC3(O)C4CCCN4C(=O)C(Cc4ccccc4)N3C2=O)CC2c3cccc4[nH]cc(c34)CC21 (stereo unspecified) [NSC_3066]
[1]
  Ki: 15.2 nM and 30 nM

## CN[C@@H](C)Cc1ccc2c(c1)OCO2 [DL-(3,4-Methylenedioxy)methamphetamine]
[5]
  Ki: > 10000 nM
[2]
  Ki: 278 nM
[1]
  Ki: 500 nM and 2000 nM
[6]
  Ki: > 10000 nM
[7]
  Ki: > 10000 nM
[8]
  Ki: > 10000 nM
[9]
  Ki: > 10000 nM
[10]
  Ki: 8240 nM
[11]
  Ki: > 10000 nM
[12]
  Ki: > 10000 nM
[13]
  Ki: > 10000 nM
[14]
  Ki: > 10000 nM
[15]
  Ki: 1120 nM
[16]
  Ki: > 10000 nM
[17]
  Ki: 2140 nM
[18]
  Ki: > 10000 nM
[19]
  Ki: > 10000 nM
[20]
  Ki: > 10000 nM
[21]
  Ki: 1200 nM
[22]
  Ki: > 10000 nM
[23]
  Ki: 6340 nM
[24]
  Ki: 2530 nM
[25]
  Ki: > 10000 nM
[3]
  Ki: 72 nM
[26]
  Ki: > 10000 nM
[4]
  Ki: 110 nM
[27]
  Ki: > 10000 nM
[28]
  Ki: > 10000 nM
[29]
  Ki: > 10000 nM
[30]
  Ki: > 10000 nM
[31]
  Ki: > 10000 nM
[32]
  Ki: > 10000 nM
[33]
  Ki: > 10000 nM
[34]
  Ki: > 10000 nM
[35]
  Ki: > 10000 nM
[36]
  Ki: > 10000 nM
[37]
  Ki: > 10000 nM
[38]
  Ki: > 10000 nM
[39]
  Ki: > 10000 nM
[40]
  Ki: > 10000 nM
[41]
  Ki: > 10000 nM

## CN[C@H](C)Cc1ccc2c(c1)OCO2 [NSC_126235]
[2]
  Ki: 142 nM
[1]
  Ki: 6000 nM
[3]
  Ki: 74 nM
[4]
  Ki: 136 nM

## CN[C@@H](C)Cc1ccc2c(c1)OCO2 [MDMA, R(-)]
[2]
  Ki: 3700 nM
[1]
  Ki: 900 nM
[3]
  Ki: 340 nM
[4]
  Ki: 560 nM

## CCCN1CC(CSC)CC2c3cccc4[nH]cc(c34)CC21 (stereo unspecified) [CAS_66104-22-1]
[1]
  Ki: 14 nM and 53 nM

## NCCc1c[nH]c2ccc(O)cc12 [[3H]-5-HT]
[2]
  Ki: > 10000 nM
[4]
  Ki: > 10000 nM

## C[C@H](N)Cc1ccc2c(c1)OCO2 [NSC_3050061]
[2]
  Ki: 98 nM
[1]
  Ki: 100 nM
[3]
  Ki: 100 nM
[4]
  Ki: 50 nM

## C[C@@H](N)Cc1ccc2c(c1)OCO2 [NSC_3046161]
[2]
  Ki: 900 nM
[1]
  Ki: 150 nM
[3]
  Ki: 310 nM
[4]
  Ki: 290 nM

## CCNC(C)Cc1cccc(C(F)(F)F)c1 (stereo unspecified) [NSC_3337]
[2]
  Ki: > 10000 nM

## CC(N)Cc1ccc2c(c1)OCO2 (stereo unspecified)
[2]
  Ki: 190 nM
[1]
  Ki: 100 nM and 190 nM
[3]
  Ki: 160 nM
[4]
  Ki: 108 nM

— BindingDB's records for doi:10.1124/mol.63.6.1223 (Case Western Reserve University, 2003)
